Among the data in BindingDB's records for doi:10.1016/s0022-2836(03)00399-1 (Celera, 2003) are Ki values, retold here.

Test in all cases: Enzyme Assay and Determination of the Inhibition Constants
Assay [1] has as its target T1, Serine protease 1 (Bos taurus, UniProt P00760).
T1 sequence (P00760 whole entry): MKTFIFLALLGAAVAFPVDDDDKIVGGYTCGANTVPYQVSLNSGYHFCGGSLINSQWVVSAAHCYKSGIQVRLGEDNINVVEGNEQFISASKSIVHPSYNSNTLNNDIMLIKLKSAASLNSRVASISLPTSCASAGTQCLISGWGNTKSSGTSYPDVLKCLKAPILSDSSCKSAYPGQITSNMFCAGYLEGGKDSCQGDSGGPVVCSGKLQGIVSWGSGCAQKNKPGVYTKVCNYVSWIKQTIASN
Protocol: (§1) Each enzyme was assayed with a set of different concentrations of each inhibitor. […] Ki(apparent) values were calculated from enzyme velocity curves using the software package BatchKi (BioKin Ltd, Madison, WI). These apparent inhibition constants were then converted to Ki values by assuming competitive inhibition and using the formula Ki = Ki(apparent)/(1 + S/Km).

The target in a further assay is Coagulation factor X (Homo sapiens, UniProt P00742).
In assay [2] the target is Urokinase-type plasminogen activator (Homo sapiens, UniProt P00749).
Protocol: as §1
In the next assay the target is Prothrombin (Homo sapiens, UniProt P00734).
Assay [3] concerns the target Serine protease 1 (Homo sapiens, UniProt P07477).
Protocol: as §1

Chain of Serine protease 1 (Homo sapiens, UniProt P07477) (P07477 whole entry): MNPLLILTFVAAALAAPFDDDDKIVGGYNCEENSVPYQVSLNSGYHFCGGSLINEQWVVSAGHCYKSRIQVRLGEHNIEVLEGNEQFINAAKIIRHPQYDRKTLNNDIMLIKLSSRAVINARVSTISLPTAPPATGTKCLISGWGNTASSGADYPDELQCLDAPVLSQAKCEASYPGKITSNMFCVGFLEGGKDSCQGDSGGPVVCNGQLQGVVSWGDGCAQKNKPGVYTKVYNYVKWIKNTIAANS
Chain of Coagulation factor X (P00742 41-179 limits assumed): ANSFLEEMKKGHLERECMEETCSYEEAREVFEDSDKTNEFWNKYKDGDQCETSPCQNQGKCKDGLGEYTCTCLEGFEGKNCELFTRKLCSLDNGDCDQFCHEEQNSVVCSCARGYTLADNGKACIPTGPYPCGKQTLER
Chain of Coagulation factor X (P00742 235-488 limits assumed): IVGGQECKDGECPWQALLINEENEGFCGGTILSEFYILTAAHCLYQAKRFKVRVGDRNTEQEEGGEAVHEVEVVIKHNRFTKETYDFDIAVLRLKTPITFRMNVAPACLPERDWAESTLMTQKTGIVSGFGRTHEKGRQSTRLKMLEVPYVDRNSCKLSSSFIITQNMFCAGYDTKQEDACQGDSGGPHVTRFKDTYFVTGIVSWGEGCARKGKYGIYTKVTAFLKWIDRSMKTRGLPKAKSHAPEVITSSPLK
Protocol for Coagulation factor X: as §1
Protocol for Prothrombin: as §1

The Ki is a measure of affinity in units of concentration, obtained from inhibition or displacement. In the case of `N=C(N)c1ccc2nc(-c3cc([N+](=O)[O-])ccc3O)[nH]c2c1` [2-{5-[amino(iminiumyl)methyl]-1H-1,3-benzodiazol-2-yl}-4-nitrobenzen-1-olate], the Ki on Serine protease 1 [1] (pH 6.1, 22 °C) stood at 470 nM; on Coagulation factor X, 7300 nM; in assay [2], 5100 nM; on Prothrombin, 23000 nM.
Consider `COc1ccc(O)c(-c2nc3ccc(C(=N)N)cc3[nH]2)c1` [{amino[2-(2-hydroxy-5-methoxyphenyl)-1H-1,3-benzodiazol-5-yl]methylidene}azanium], for which the Ki was determined as 1200 nM on Serine protease 1 [1] (pH 7.72, 22 °C) and 8000 nM at Coagulation factor X.
Regarding `N=C(N)c1ccc2[nH]c(-c3cc(Cl)cc(-c4ccccc4)c3O)cc2c1` [2-{5-[amino(iminiumyl)methyl]-1H-indol-2-yl}-4-chloro-6-phenylbenzen-1-olate], the Ki came to 13 nM at Serine protease 1 [1]; 250 nM at Coagulation factor X; 590 nM in assay [2]; 1000 nM on Prothrombin; 540 nM on Serine protease 1 [3].
`N=C(N)c1ccc2nc(-c3cccc(OC4CCCC4)c3O)[nH]c2c1` [CA-06] yielded a Ki at Serine protease 1 [1] (pH 7.67, 22 °C) of 52 nM.
As for `N=C(N)c1cc2cc(-c3cccc(-c4ccccc4)c3O)[nH]c2cc1F` [CA-12], the inhibitory constant (Ki) at Serine protease 1 [1] was 190 nM; on Prothrombin, 6300 nM; at Serine protease 1 [3], 660 nM.
Take `N=C(N)c1ccc2[nH]c(-c3cc([C@@H](CC(=O)O)C(=O)O)cc(Br)c3O)cc2c1` [(2R)-2-(3-{5-[amino(iminiumyl)methyl]-1H-indol-2-yl}-5-bromo-4-oxidophenyl)butanedioate]: the Ki was 240 nM at Serine protease 1 [1], 48 nM at Coagulation factor X, 1700 nM on Prothrombin and 1700 nM at Serine protease 1 [3].
Consider `N=C(N)c1cc2nc(-c3cccc(-c4ccccc4)c3O)[nH]c2cc1F` [2-{5-[amino(iminiumyl)methyl]-6-fluoro-1H-1,3-benzodiazol-2-yl}-6-phenylbenzen-1-olate], for which the Ki on Serine protease 1 [1] (pH 7.5, 22 °C) is 230 nM; in assay [2] it was 280 nM; on Serine protease 1 [3], 12000 nM.
With `N=C(N)c1ccc2[nH]c(-c3ccccc3O)cc2c1` [2-{5-[amino(iminiumyl)methyl]-1H-indol-2-yl}benzen-1-olate], the inhibition constant (Ki) at Serine protease 1 [1] (pH 8.04, 22 °C) is 600 nM; on Coagulation factor X it was 2400 nM; in assay [2], 2900 nM; on Prothrombin it was 12000 nM; at Serine protease 1 [3], 4900 nM.
As to `N=C(N)c1ccc2nc(-c3cc([C@@H](CC(=O)O)C(=O)O)cc(Br)c3O)[nH]c2c1` [(2R)-2-(3-{5-[amino(iminiumyl)methyl]-1H-1,3-benzodiazol-2-yl}-5-bromo-4-oxidophenyl)butanedioate], the inhibitory constant (Ki) on Coagulation factor X was 700 nM; in assay [2] it was 750 nM; on Prothrombin, 40000 nM; on Serine protease 1 [3] it was 7500 nM.
As for `Cc1cc(-c2ccccc2)c(O)c(-c2cc3cc(C(=N)N)ccc3[nH]2)c1` [2-{5-[amino(iminiumyl)methyl]-1H-indol-2-yl}-4-methyl-6-phenylbenzen-1-olate], the inhibition constant Ki on Serine protease 1 [1] (pH 7.6, 22 °C) worked out at 15 nM; at Coagulation factor X it was 180 nM; in assay [2] it was 340 nM; at Serine protease 1 [3], 380 nM.
As to `CN(C)C(=O)c1cc(-c2ccccc2)c(O)c(-c2cc3cc(C(=N)N)ccc3[nH]2)c1` [2-{5-[amino(iminiumyl)methyl]-1H-indol-2-yl}-4-(dimethylcarbamoyl)-6-phenylbenzen-1-olate], the Ki at Coagulation factor X was found to be 52 nM; in assay [2] it was 3.2 nM; at Prothrombin it was 240 nM; at Serine protease 1 [3], 37 nM.
On the same counts, the results for `CN(C)C(=O)c1cc(-c2ccccc2)c(O)c(-c2cc3cc(C(=N)N)c(Cl)cc3[nH]2)c1` [2-{5-[amino(iminiumyl)methyl]-6-chloro-1H-indol-2-yl}-4-(dimethylcarbamoyl)-6-phenylbenzen-1-olate] are 8000 nM, 2.2 nM, 33000 nM and 190 nM.
`N=C(N)c1ccc2[nH]c(-c3cc([N+](=O)[O-])cc(-c4ccccc4)c3O)cc2c1` [2-{5-[amino(iminiumyl)methyl]-1H-indol-2-yl}-4-nitro-6-phenylbenzen-1-olate]: the inhibition constant Ki on Serine protease 1 [1] amounted to 1.3 nM; at Coagulation factor X it was 13 nM; on Serine protease 1 [3], 80 nM.
With `N=C(N)c1ccc2nc(-c3cc([C@@H](CC(=O)O)C(=O)O)cc(-c4ccccc4)c3O)[nH]c2c1` [(2R)-2-(3-{5-[amino(iminiumyl)methyl]-1H-1,3-benzodiazol-2-yl}-4-oxido-5-phenylphenyl)butanedioate], the inhibition constant Ki turned out to be 290 nM on Serine protease 1 [1]; 1200 nM on Coagulation factor X; 120 nM in assay [2]; 160000 nM at Prothrombin; 3700 nM on Serine protease 1 [3].
In the case of `N=C(N)c1ccc2nc(-c3cc([C@@H](CC(=O)O)C(=O)O)ccc3O)[nH]c2c1` [(2R)-2-(3-{5-[amino(iminiumyl)methyl]-1H-1,3-benzodiazol-2-yl}-4-oxidophenyl)butanedioate], the inhibition constant (Ki) at Serine protease 1 [1] is 10000 nM; on Coagulation factor X it was 10000 nM; on Prothrombin, over 75000 nM; on Serine protease 1 [3], 4400 nM.
On to `N=C(N)c1ccc2nc(-c3cc([C@@H](CC(=O)O)C(=O)O)cc(-c4ccccc4N)c3O)[nH]c2c1` [(2R)-2-(3-{5-[amino(iminiumyl)methyl]-1H-1,3-benzodiazol-2-yl}-5-(2-aminophenyl)-4-oxidophenyl)butanedioate], for which the inhibition constant Ki at Serine protease 1 [1] is 1100 nM; on Coagulation factor X, 3800 nM; at Prothrombin, over 75000 nM; at Serine protease 1 [3], 8500 nM.
`CN(C)C(=O)c1cc(-c2ccccc2)c(O)c(-c2cc3cc(C(=N)N)c(F)cc3[nH]2)c1` [2-{5-[amino(iminiumyl)methyl]-6-fluoro-1H-indol-2-yl}-4-(dimethylcarbamoyl)-6-phenylbenzen-1-olate]: the inhibition constant (Ki) on Coagulation factor X came to 650 nM; in assay [2], 30 nM; on Prothrombin, 3600 nM; on Serine protease 1 [3], 130 nM.
